How the values were obtained:
Type in all cases: cell-based
M. catarrhalis UC30607 = experiment: Antibacterial activity, MIC; conditions: strain UC30607
E. coli UC6674 = experiment: Antibacterial activity, MIC; conditions: strain UC6674
S. pneumoniae UC9912 = experiment: Antibacterial activity, MIC; conditions: strain UC9912
E. faecalis UC9217 = experiment: Antibacterial activity, MIC; conditions: strain UC9217
H. influenzae UC30063 = experiment: Antibacterial activity, MIC; conditions: strain UC30063
S. aureus UC9218 = experiment: Antibacterial activity, MIC; conditions: strain UC9218
[1] = tested on: E. faecalis, S. aureus, S. pneumoniae, H. influenzae, M. catarrhalis, E. coli; experiment: Antibacterial activity, overall statement on Table 1; conditions: summary in words of Table 1

Structure (SMILES)	MIC M. catarrhalis UC30607 (M. catarrhalis UC30607)	MIC E. coli UC6674 (E. coli UC6674)	MIC S. pneumoniae UC9912 (S. pneumoniae UC9912)	MIC E. faecalis UC9217 (E. faecalis UC9217)	MIC H. influenzae UC30063 (H. influenzae UC30063)	MIC S. aureus UC9218 (S. aureus UC9218)	antibacterial activity [1]
CC(=O)NC[C@H]1CN(c2ccc(N3CCN(c4cc5c(cc4F)c(=O)c(C(=O)O)cn5C4CC4)CC3)c(F)c2)C(=O)O1 [Example 1]	1 :g/mL	16 :g/mL	0.125 :g/mL	0.25 :g/mL	8 :g/mL	0.5 :g/mL	
CC(=O)NC[C@H]1CN(c2ccc(N3CCN(c4c(F)cc5c(=O)c(C(=O)O)cn6c5c4OCC6C)CC3)c(F)c2)C(=O)O1 (stereo partly shown) [Example 2]	2 :g/mL	16 :g/mL	0.25 :g/mL	0.5 :g/mL	4 :g/mL	1 :g/mL	
CC(=O)NC[C@H]1CN(c2ccc(-c3cc4c(cc3F)c(=O)c(C(=O)O)cn4C3CC3)c(F)c2)C(=O)O1 [Example 3, 7-(4{(5S)-5-[(Acetylamino)methyl]2-oxo-1,3-oxazolidin-3-yl}-2-fluorophenyl)-1-cyclopropyl-6-fluoro-4-oxo-1,4-dihydro-3-quinolinecarboxylic acid]	4 :g/mL	4 :g/mL	4 :g/mL	8 :g/mL	0.5 :g/mL	2 :g/mL	potent antibacterial activity
